The target of this assay is T1, RXFP1 (Homo sapiens, UniProt Q9HBX9).
T1 construct: OVCAR5 cells expressing endogenous RXFP1; endogenous in cells; host or cells: OVCAR5
T1 sequence (Q9HBX9 1-757): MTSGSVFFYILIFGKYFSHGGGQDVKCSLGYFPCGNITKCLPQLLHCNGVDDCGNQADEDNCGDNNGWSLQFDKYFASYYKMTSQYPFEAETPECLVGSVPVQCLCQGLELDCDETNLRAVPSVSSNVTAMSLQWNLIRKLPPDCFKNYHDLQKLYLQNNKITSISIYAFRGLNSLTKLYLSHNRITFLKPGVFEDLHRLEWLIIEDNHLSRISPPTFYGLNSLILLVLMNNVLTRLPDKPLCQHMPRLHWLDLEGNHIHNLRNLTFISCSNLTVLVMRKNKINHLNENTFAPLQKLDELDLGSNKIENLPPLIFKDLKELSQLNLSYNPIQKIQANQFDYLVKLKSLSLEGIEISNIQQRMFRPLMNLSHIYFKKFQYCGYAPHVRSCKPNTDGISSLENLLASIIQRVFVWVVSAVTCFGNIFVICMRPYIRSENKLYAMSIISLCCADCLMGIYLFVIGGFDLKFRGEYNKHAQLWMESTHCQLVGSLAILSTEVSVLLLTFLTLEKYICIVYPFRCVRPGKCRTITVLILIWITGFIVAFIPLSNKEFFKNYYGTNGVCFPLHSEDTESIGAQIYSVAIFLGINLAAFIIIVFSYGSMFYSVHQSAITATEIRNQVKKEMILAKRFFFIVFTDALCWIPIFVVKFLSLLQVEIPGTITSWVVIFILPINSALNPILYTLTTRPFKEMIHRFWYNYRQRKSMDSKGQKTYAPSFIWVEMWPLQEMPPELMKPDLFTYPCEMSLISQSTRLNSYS
In words: OVCAR5 cAMP assay (HTRF). It is filed as cell-based. The following applies: for EC50: OVCAR 5 cells expressing endogenous RXFP1, cAMP readout; for Emax: OVCAR 5 cells, maximal cAMP relative to H2-relaxin. An outline of the steps: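 Endogenous RXFP1 in OVCAR5 cells, pretreated 40 min at 37° C with 1 mM IBMX, then exposed to increasing peptide concentrations in serum-free medium for 30 min at 37° C. cAMP read by HTRF; EC50 by variable-slope sigmoidal fit, Emax as % of H2-relaxin maximal cAMP in same run.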
For orientation: Cyclic AMP is a second messenger, typically raised through Gs and lowered through Gi signalling.

Starred links: 1 amine or outer side, 2 acyl side, 3 side chain; linkers in the order of their positions; H or OH if unused. Non-standard residues stand in square brackets, D forms with d. Residues, ends and D or L forms follow the SMILES beside them. Groups on a side chain read outwards from the residue. *: point of attachment. X1 = CCCCCCCCCCCCCCCC(=O)N[C@@H](CCC(=O)N[C@@H](CCC(=O)N[C@@H](CCC(=O)NCCCOCCOCCOCCCNC(=O)CCC(=O)NCCCOCCOCCOCCCNC(=O)CCC(=O)NCCCOCCOCCOCCCN*)C(=O)O)C(=O)O)C(=O)O; X2 = CCCCCCCCCCCCCCCC(=O)N[C@@H](CCC(=O)N[C@@H](CCC(=O)N[C@@H](CCC(=O)NCCCOCCOCCOCCCNC(=O)CCC(=O)NCCCOCCOCCOCCCN*)C(=O)O)C(=O)O)C(=O)O; Suc = O=C(CCC(=O)[*:2])[*:1]; αMeK = C[C@](N)(CCCCN)C(=O)O; Aib = CC(C)(N)C(=O)O

As usually defined, the EC50 is the concentration that produces a half-maximal response. Usually Emax stands for the greatest response seen or fitted, relative to the assay's reference.

As to `CCCCCCCCCCCCCCCC(=O)N[C@@H](CCC(=O)N[C@@H](CCC(=O)N[C@@H](CCC(=O)NCCCOCCOCCOCCCNC(=O)CCC(=O)NCCCOCCOCCOCCCNC(=O)CCC(=O)NCCCC[C@H](NC(=O)CNC(=O)[C@H](CCC(=O)O)NC(=O)C(C)(C)NC(=O)C(C)(C)NC(=O)[C@@H](NC(=O)[C@H](CCCCNC(C)=O)NC(=O)[C@H](C)NC(=O)[C@H](CCCNC(=N)N)NC(=O)[C@@H](NC(=O)[C@H](CCCCN)NC(=O)[C@H](CCC(=O)O)NC(=O)[C@H](CCCNC(=N)N)NC(=O)CNC(=O)[C@H](CCC(=O)O)NC(=O)[C@H](CC(C)C)NC(C)=O)C(C)C)[C@@H](C)CC)C(=O)N[C@@H](CO)C(=O)N[C@H](C(=O)N[C@@H](Cc1c[nH]c2ccccc12)C(=O)N[C@@H](CO)C(=O)NC(C)(C)C(=O)N[C@@H](CCCNC(=N)N)C(=O)N[C@@H](CCCCN)C(=O)N[C@@H](CCCCNC(C)=O)C(N)=O)[C@@H](C)O)C(=O)O)C(=O)O)C(=O)O` [compound 4] (Ac-LEGREKVRAK(Ac)I[Aib][Aib]EGK([Suc-X2])STWS[Aib]RKK(Ac)-NH2), the half-maximal effective concentration (EC50) worked out at 1.5 nM and the Emax was determined as 89%.
Take `CCCCCCCCCCCCCCCC(=O)N[C@@H](CCC(=O)N[C@@H](CCC(=O)N[C@@H](CCC(=O)NCCCOCCOCCOCCCNC(=O)CCC(=O)NCCCOCCOCCOCCCNC(=O)CCC(=O)NCCCOCCOCCOCCCNC(=O)CCC(=O)NCCCC[C@H](NC(=O)CNC(=O)[C@H](CCC(=O)O)NC(=O)C(C)(C)NC(=O)C(C)(C)NC(=O)[C@@H](NC(=O)[C@H](CCCCNC(C)=O)NC(=O)[C@H](C)NC(=O)[C@H](CCCNC(=N)N)NC(=O)[C@@H](NC(=O)[C@H](CCCCN)NC(=O)[C@H](CCC(=O)O)NC(=O)[C@H](CCCNC(=N)N)NC(=O)CNC(=O)[C@H](CCC(=O)O)NC(=O)[C@H](CC(C)C)NC(C)=O)C(C)C)[C@@H](C)CC)C(=O)N[C@@H](CO)C(=O)N[C@H](C(=O)N[C@@H](Cc1ccccc1)C(=O)N[C@@H](CO)C(=O)N[C@@](C)(CCCCN)C(=O)N[C@@H](CCCNC(=N)N)C(=O)N[C@@H](C)C(=O)N[C@@H](CCCCNC(C)=O)C(N)=O)[C@@H](C)O)C(=O)O)C(=O)O)C(=O)O` [compound 3] (Ac-LEGREKVRAK(Ac)I[Aib][Aib]EGK([Suc-X1])STFS[αMeK]RAK(Ac)-NH2): a half-maximal response (EC50) required 0.34 nM and the Emax turned out to be 97%.

For the origin of these results see US11725036B2, “Modified lipidated relaxin B chain peptides and their therapeutic use” (Sanofi, priority 2018, dated 2023).
